Assay results from patent US7517874B2 (priority 2007, dated 2009).

What was measured:
[1] = biological target: human CB1 receptor (hCB1) (Homo sapiens, UniProt P21554); assay: cell-based; assay type: cell-based; details: for +/− HCB1: agonist or inverse agonist at hCB1
In short: (§1)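 Readout: LANCE TR-FRET cAMP, back-calculated from a concurrent standard curve and scaled between forskolin-only and forskolin + 1 μM CP55,940 wells. EC50 and intrinsic activity came from four-parameter fits.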

rat CB2 receptor (rCB2) = biological target: T1, rat CB2 receptor (rCB2) (Rattus norvegicus, UniProt Q9QZN9); assay: cell-based; assay type: cell-based; details: agonist or inverse agonist at rCB2
T1 sequence (Q9QZN9 1-360): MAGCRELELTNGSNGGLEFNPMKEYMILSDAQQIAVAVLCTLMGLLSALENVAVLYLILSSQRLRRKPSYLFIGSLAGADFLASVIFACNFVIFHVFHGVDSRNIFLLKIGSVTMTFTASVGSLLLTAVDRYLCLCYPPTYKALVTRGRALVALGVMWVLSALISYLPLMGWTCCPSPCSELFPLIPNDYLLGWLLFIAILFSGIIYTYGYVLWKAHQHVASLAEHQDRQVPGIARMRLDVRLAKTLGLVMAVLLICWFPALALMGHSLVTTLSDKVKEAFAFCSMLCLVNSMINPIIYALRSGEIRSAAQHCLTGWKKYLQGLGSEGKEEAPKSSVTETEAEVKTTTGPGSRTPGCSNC
In short: as §1

human CB1 receptor (hCB1), sequence (P21554 whole entry): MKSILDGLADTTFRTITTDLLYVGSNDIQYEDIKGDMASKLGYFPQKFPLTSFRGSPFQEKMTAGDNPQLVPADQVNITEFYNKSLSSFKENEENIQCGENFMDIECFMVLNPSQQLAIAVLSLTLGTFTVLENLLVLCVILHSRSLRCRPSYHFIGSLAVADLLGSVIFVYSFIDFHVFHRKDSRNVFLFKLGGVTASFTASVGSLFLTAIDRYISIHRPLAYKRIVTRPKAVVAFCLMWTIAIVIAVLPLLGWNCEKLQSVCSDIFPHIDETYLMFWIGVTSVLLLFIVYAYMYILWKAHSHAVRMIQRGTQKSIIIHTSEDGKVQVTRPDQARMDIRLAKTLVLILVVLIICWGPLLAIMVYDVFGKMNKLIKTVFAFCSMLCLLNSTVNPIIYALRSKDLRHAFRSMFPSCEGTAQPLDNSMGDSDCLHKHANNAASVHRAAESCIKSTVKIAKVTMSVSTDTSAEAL

| Compound | EC50 [1] [µM] | +/− RCB2 (rat CB2 receptor (rCB2)) | +/− HCB1 [1] |
| --- | --- | --- | --- |
| CN1CCCn2c(-c3cc(F)ccc3F)nc(C(=O)N[C@H](C(=O)N(C)C)C(C)(C)C)c2C1 [Compound 562, (S)-3-(2,5-difluorophenyl)-N-(1-(dimethylamino)-3,3-dimethyl-1-oxobutan-2-yl)-8-methyl-6,7,8,9-tetrahydro-5H-imidazo[1,5-a][1,4]diazepine-1-carboxamide] | > 10 | − |  |
| CN1CCCn2c(-c3ccc(F)cc3F)nc(C(=O)N[C@H](C(=O)N(C)C)C(C)(C)C)c2C1 [Compound 563, (S)-3-(2,4-difluorophenyl)-N-(1-(dimethylamino)-3,3-dimethyl-1-oxobutan-2-yl)-8-methyl-6,7,8,9-tetrahydro-5H-imidazo[1,5-a][1,4]diazepine-1-carboxamide] |  | + | + |
| CC(C)C[C@H](NC(=O)c1nc(-c2ccc(Cl)cc2F)n2c1CN(C)CCC2)C(N)=O [Compound 564, (S)-N-(1-amino-4-methyl-1-oxopentan-2-yl)-3-(4-chloro-2-fluorophenyl)-8-methyl-6,7,8,9-tetrahydro-5H-imidazo[1,5-a][1,4]diazepine-1-carboxamide] |  | + | + |
| CC(C)C[C@H](NC(=O)c1nc(-c2ccc(F)cc2)n2c1CN(C)CCC2)C(N)=O [Compound 565, (S)-N-(1-amino-4-methyl-1-oxopentan-2-yl)-3-(4-fluorophenyl)-8-methyl-6,7,8,9-tetrahydro-5H-imidazo[1,5-a][1,4]diazepine-1-carboxamide] | > 10 | + |  |
| CC(C)C[C@H](NC(=O)c1nc(-c2cccc(F)c2)n2c1CN(C)CCC2)C(N)=O [Compound 566, (S)-N-(1-amino-4-methyl-1-oxopentan-2-yl)-3-(3-fluorophenyl)-8-methyl-6,7,8,9-tetrahydro-5H-imidazo[1,5-a][1,4]diazepine-1-carboxamide] | > 10 | + |  |
| CC(C)C[C@H](NC(=O)c1nc(-c2cc(F)ccc2F)n2c1CN(C)CCC2)C(N)=O [Compound 567, (S)-N-(1-amino-4-methyl-1-oxopentan-2-yl)-3-(2,5-difluorophenyl)-8-methyl-6,7,8,9-tetrahydro-5H-imidazo[1,5-a][1,4]diazepine-1-carboxamide] | > 10 | + |  |
| CC(C)C[C@H](NC(=O)c1nc(-c2ccc(F)cc2F)n2c1CN(C)CCC2)C(N)=O [Compound 568, (S)-N-(1-amino-4-methyl-1-oxopentan-2-yl)-3-(2,4-difluorophenyl)-8-methyl-6,7,8,9-tetrahydro-5H-imidazo[1,5-a][1,4]diazepine-1-carboxamide] |  | + | + |
| CC(C)C[C@H](NC(=O)c1nc(-c2cc(Cl)ccc2F)n2c1CN(C)CCC2)C(N)=O [Compound 569, (S)-N-(1-amino-4-methyl-1-oxopentan-2-yl)-3-(5-chloro-2-fluorophenyl)-8-methyl-6,7,8,9-tetrahydro-5H-imidazo[1,5-a][1,4]diazepine-1-carboxamide] |  | + | + |
| CC(C)C[C@H](NC(=O)c1nc(C2CCCCC2)n2c1CN(C)CCC2)C(N)=O [Compound 570, (S)-N-(1-amino-4-methyl-1-oxopentan-2-yl)-3-cyclohexyl-8-methyl-6,7,8,9-tetrahydro-5H-imidazo[1,5-a][1,4]diazepine-1-carboxamide] |  | + | + |
| CC(C)C[C@H](NC(=O)c1nc(-c2cc(Cl)c(F)cc2F)n2c1CN(C)CCC2)C(N)=O [Compound 571, (S)-N-(1-amino-4-methyl-1-oxopentan-2-yl)-3-(5-chloro-2,4-difluorophenyl)-8-methyl-6,7,8,9-tetrahydro-5H-imidazo[1,5-a][1,4]diazepine-1-carboxamide] |  | + | + |
| CC(C)C[C@H](NC(=O)c1nc(-c2cc(F)c(F)cc2F)n2c1CN(C)CCC2)C(N)=O [Compound 572, (S)-N-(1-amino-4-methyl-1-oxopentan-2-yl)-8-methyl-3-(2,4,5-trifluorophenyl)-6,7,8,9-tetrahydro-5H-imidazo[1,5-a][1,4]diazepine-1-carboxamide] |  | + | + |
| CN1CCCn2c(-c3ccc(Cl)cc3F)nc(C(=O)N[C@H](C(N)=O)C(C)(C)C)c2C1 [Compound 573, (S)-N-(1-amino-3,3-dimethyl-1-oxobutan-2-yl)-3-(4-chloro-2-fluorophenyl)-8-methyl-6,7,8,9-tetrahydro-5H-imidazo[1,5-a][1,4]diazepine-1-carboxamide] |  | + | + |
| CN1CCCn2c(-c3cc(Cl)ccc3F)nc(C(=O)N[C@H](C(N)=O)C(C)(C)C)c2C1 [Compound 574, (S)-N-(1-amino-3,3-dimethyl-1-oxobutan-2-yl)-3-(5-chloro-2-fluorophenyl)-8-methyl-6,7,8,9-tetrahydro-5H-imidazo[1,5-a][1,4]diazepine-1-carboxamide] |  | + | + |
| CN1CCCn2c(-c3cc(F)ccc3F)nc(C(=O)N[C@H](C(N)=O)C(C)(C)C)c2C1 [Compound 575, (S)-N-(1-amino-3,3-dimethyl-1-oxobutan-2-yl)-3-(2,5-difluorophenyl)-8-methyl-6,7,8,9-tetrahydro-5H-imidazo[1,5-a][1,4]diazepine-1-carboxamide] |  | + | + |
| CN1CCCn2c(-c3ccc(F)c(Cl)c3)nc(C(=O)N[C@H](C(N)=O)C(C)(C)C)c2C1 [Compound 576, (S)-N-(1-amino-3,3-dimethyl-1-oxobutan-2-yl)-3-(3-chloro-4-fluorophenyl)-8-methyl-6,7,8,9-tetrahydro-5H-imidazo[1,5-a][1,4]diazepine-1-carboxamide] |  | + | + |
| CN1CCCn2c(-c3ccc(Cl)c(F)c3)nc(C(=O)N[C@H](C(N)=O)C(C)(C)C)c2C1 [Compound 577, (S)-N-(1-amino-3,3-dimethyl-1-oxobutan-2-yl)-3-(4-chloro-3-fluorophenyl)-8-methyl-6,7,8,9-tetrahydro-5H-imidazo[1,5-a][1,4]diazepine-1-carboxamide] |  | + | + |
| CN1CCCn2c(-c3ccc(F)cc3F)nc(C(=O)N[C@H](C(N)=O)C(C)(C)C)c2C1 [Compound 578, (S)-N-(1-amino-3,3-dimethyl-1-oxobutan-2-yl)-3-(2,4-difluorophenyl)-8-methyl-6,7,8,9-tetrahydro-5H-imidazo[1,5-a][1,4]diazepine-1-carboxamide] |  | + | + |
| CN1CCCn2c(-c3cc(F)c(F)cc3F)nc(C(=O)N[C@H](C(N)=O)C(C)(C)C)c2C1 [Compound 579, (S)-N-(1-amino-3,3-dimethyl-1-oxobutan-2-yl)-8-methyl-3-(2,4,5-trifluorophenyl)-6,7,8,9-tetrahydro-5H-imidazo[1,5-a][1,4]diazepine-1-carboxamide] |  | + | + |
| CN1CCCn2c(-c3cc(Cl)c(F)cc3F)nc(C(=O)N[C@H](C(N)=O)C(C)(C)C)c2C1 [Compound 580, (S)-N-(1-amino-3,3-dimethyl-1-oxobutan-2-yl)-3-(5-chloro-2,4-difluorophenyl)-8-methyl-6,7,8,9-tetrahydro-5H-imidazo[1,5-a][1,4]diazepine-1-carboxamide] |  | + | + |
| CN1CCCn2c(-c3ccc(F)c(F)c3)nc(C(=O)N[C@H](C(N)=O)C(C)(C)C)c2C1 [Compound 581, (S)-N-(1-amino-3,3-dimethyl-1-oxobutan-2-yl)-3-(3,4-difluorophenyl)-8-methyl-6,7,8,9-tetrahydro-5H-imidazo[1,5-a][1,4]diazepine-1-carboxamide] |  | + | + |
| CN1CCCn2c(-c3ccccc3)nc(C(=O)N[C@H](C(N)=O)C(C)(C)C)c2C1 [Compound 582] | > 10 | + |  |
| CN1CCCn2c(-c3cc(F)ccc3F)nc(C(=O)N[C@@H](CC(C)(C)C)C(N)=O)c2C1 [Compound 583, (S)-N-(1-amino-4,4-dimethyl-1-oxopentan-2-yl)-3-(2,5-difluorophenyl)-8-methyl-6,7,8,9-tetrahydro-5H-imidazo[1,5-a][1,4]diazepine-1-carboxamide] |  | + | + |
| CN1CCCn2c(-c3ccc(Cl)cc3F)nc(C(=O)N[C@@H](CC(C)(C)C)C(N)=O)c2C1 [Compound 584, (S)-N-(1-amino-4,4-dimethyl-1-oxopentan-2-yl)-3-(4-chloro-2-fluorophenyl)-8-methyl-6,7,8,9-tetrahydro-5H-imidazo[1,5-a][1,4]diazepine-1-carboxamide] |  | + | + |
| CN1CCCn2c(-c3cc(Cl)ccc3F)nc(C(=O)N[C@@H](CC(C)(C)C)C(N)=O)c2C1 [Compound 585, (S)-N-(1-amino-4,4-dimethyl-1-oxopentan-2-yl)-3-(5-chloro-2-fluorophenyl)-8-methyl-6,7,8,9-tetrahydro-5H-imidazo[1,5-a][1,4]diazepine-1-carboxamide] |  | + | + |
| CN1CCCn2c(-c3ccc(F)c(F)c3)nc(C(=O)N[C@@H](CC(C)(C)C)C(N)=O)c2C1 [Compound 586, (S)-N-(1-amino-4,4-dimethyl-1-oxopentan-2-yl)-3-(3,4-difluorophenyl)-8-methyl-6,7,8,9-tetrahydro-5H-imidazo[1,5-a][1,4]diazepine-1-carboxamide] |  | + | + |
